Key:
[1] = target: T1, PDE4B: catalytic domain of human PDE4B from S152-S528 (Homo sapiens, UniProt Q07343); test: PDE4 IC50 determination by Scintillation Proximity Assay (SPA), PDE4B catalytic domain; type: biochemical; conditions: [3H]cAMP SPA, 30 min at 30° C.
T1 construct: The catalytic domain of human PDE4B from S152-S528; His6 (N, cleaved yes); thrombin cleavage site (N, cleaved yes); made in house; host or cells: E. coli BL21 (DE3) RIL
How it was run: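 Human PDE4B catalytic domain (80 ng/ml) hydrolysed [3H]cAMP in 50 mM Tris pH 7.5, 8.3 mM MgCl, 1.7 mM EGTA, 0.01% BSA for 30 min at 30 °C. Reaction was stopped with yttrium silicate SPA beads in 18 mM ZnSO4, and bound [3H]AMP was counted by scintillation. IC50 came from non-linear regression.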

[2] = test system: TNF-α release from whole blood cultures stimulated with LPS; test: IC50 by TNF alpha production upon stimulation of whole blood cultures with LPS; type: cell-based; conditions: human whole blood (buffy coat) culture, 100 ng/ml LPS, 4 hours; read-out: h TNFα IC50
Method: Compounds were assayed to generate IC50 numbers based on the inhibition of TNF-α release from whole blood cultures, using the following assay protocol (see Table 5 for compounds tested and results). Inhibition of PDE4B results in the inhibition of TNF-α release by whole blood cultures stimulated with lipopolysaccharide (LPS). The measurement of TNF-α release was used to assess compounds as PDE4B inhibitors.
Compounds were provided in DMSO at 20 mM and 2 μl per well was added to one row of a dilution plate. Added 98 μl of RPMI 1640 media with 2.5% heat inactivated FBS to each well containing compound. The same media with 2% DMSO was prepared and 60 μl was added to each of the empty wells in the dilution plate. The compound was serially diluted 1:3 (30 μl to 60 μl of media) for a total of 8 concentrations per compound. Wells were also prepared with 50 μM roflumilast and piclamilast as 100% inhibition controls, and 2% DMSO in media was used as 0% inhibition control. A 20 μl aliquot of each sample was transferred to an assay plate in duplicate.
Human buffy coat was obtained from the Stanford Medical School Blood Center and diluted with 7 volumes of RPMI 1640 media with 1% penicillin/streptomycin and 2.5% heat inactivated FBS. A 160 μl aliquot of the diluted blood was added to each well of the assay plates, mixed and incubated for 1 hour at 37° C. in 5% CO2. LPS (Sigma catalog number L2637) that had been diluted to 1 mg/ml in PBS and stored as 20 μl aliquots at −20° C. was thawed and diluted 1000× to 1 μg/ml. A 20 μl aliquot of this was added to each sample (final concentration 100 ng/ml LPS) after the 1 hour incubation. A background sample was prepared without addition of LPS as well. The samples were mixed on a shaker for one minute at 900 RPM and incubated for 4 hours at 37° C. in 5% CO2. The plates were then put on a shaker for one minute at 900 RPM, followed by centrifuging at 100×g for 10 minutes, deceleration setting of 5. The top 75 μl of supernatant was carefully pipetted to a new plate and frozen at −20° C.
A 50 μl aliquot of incubation buffer (Biosource International Immunoassay Kit:Human TNF-α catalog number KHC3011) was added to each well of a plate coated with monoclonal antibody specific for hTNF-α (Biosource kit). The supernatant blood samples were thawed and a 50 μl aliquot along with 50 μl of diluent buffer (Biosource kit) were added to incubation buffer and the samples were incubated for 2 hours at room temperature. The samples were washed 4 times with 300 μl/well wash buffer (Biosource kit). A 100 μl aliquot of biotinylated anti-TNFalpha (Biosource kit) was added and the samples incubated for 1 hour at room temperature. The samples were washed 4 times with 300 μl/well wash buffer. A 100 μl aliquot of Streptavidin-HRP solution (BioSource kit) was added and the samples incubated for 30 minutes at room temperature. The samples were washed 4 times with 300 μl/well wash buffer. A 100 μl aliquot of Chromagen (Biosource kit) was added and the samples incubated in the dark for 30 minutes. A 100 μl aliquot of stop solution (2N H2SO4) was added to each sample and samples were read at 450 nm on a WallacVictor for 0.1 sec/well.

[3] = target: T2, PDE4D5: full-length human PDE4D5 isozyme (Homo sapiens, UniProt Q08499); test: PDE4 IC50 determination by Scintillation Proximity Assay (SPA), full-length PDE4D5; type: biochemical; conditions: cell lysate, [3H]cAMP SPA
T2 construct: made in house; host or cells: baculovirus infected insect cells (pFastBacHT)
T2 sequence (Q08499 with tags, fused parts or gaps isoform Q08499-6): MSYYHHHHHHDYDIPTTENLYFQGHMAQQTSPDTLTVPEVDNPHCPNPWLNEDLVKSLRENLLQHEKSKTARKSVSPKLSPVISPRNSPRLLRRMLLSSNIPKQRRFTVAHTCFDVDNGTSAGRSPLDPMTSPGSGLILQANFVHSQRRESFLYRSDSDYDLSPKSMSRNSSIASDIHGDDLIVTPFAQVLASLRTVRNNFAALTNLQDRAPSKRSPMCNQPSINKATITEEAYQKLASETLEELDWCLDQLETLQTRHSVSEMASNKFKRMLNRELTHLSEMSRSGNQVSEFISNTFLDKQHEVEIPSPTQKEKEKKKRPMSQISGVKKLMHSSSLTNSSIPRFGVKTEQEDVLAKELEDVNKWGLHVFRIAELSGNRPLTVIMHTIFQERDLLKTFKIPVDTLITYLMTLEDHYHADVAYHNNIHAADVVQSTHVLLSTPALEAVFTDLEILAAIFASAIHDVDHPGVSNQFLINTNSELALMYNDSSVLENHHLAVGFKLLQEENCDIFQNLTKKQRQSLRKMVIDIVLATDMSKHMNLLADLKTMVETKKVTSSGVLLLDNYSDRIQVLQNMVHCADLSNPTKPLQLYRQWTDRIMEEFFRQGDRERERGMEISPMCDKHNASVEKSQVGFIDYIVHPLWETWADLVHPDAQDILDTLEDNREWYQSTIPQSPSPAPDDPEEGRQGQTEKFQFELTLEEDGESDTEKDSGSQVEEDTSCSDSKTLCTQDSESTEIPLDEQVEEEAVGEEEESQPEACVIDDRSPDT
How it was run: (§1)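 Unpurified enzyme from cell lysates (PDE4B2 2.5 μl, PDE4D5 0.083 μl of 50% glycerol stock/ml) hydrolysing [3H]cAMP in 50 mM Tris pH 7.5, 8.3 mM MgCl, 1.7 mM EGTA, 0.01% BSA, 30 min at 30 °C. Stopped with yttrium silicate SPA beads in 18 mM ZnSO4; bead-bound [3H]AMP counted. IC50 by non-linear regression.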

[4] = target: T3, PDE4B2: full-length human PDE4B2 isozyme (Homo sapiens, UniProt Q07343); test: PDE4 IC50 determination by Scintillation Proximity Assay (SPA), full-length PDE4B2; type: biochemical; conditions: cell lysate, [3H]cAMP SPA
T3 construct: made in house; host or cells: baculovirus infected insect cells (pFastBacHT)
T3 sequence (Q07343 with tags, fused parts or gaps isoform Q07343-2): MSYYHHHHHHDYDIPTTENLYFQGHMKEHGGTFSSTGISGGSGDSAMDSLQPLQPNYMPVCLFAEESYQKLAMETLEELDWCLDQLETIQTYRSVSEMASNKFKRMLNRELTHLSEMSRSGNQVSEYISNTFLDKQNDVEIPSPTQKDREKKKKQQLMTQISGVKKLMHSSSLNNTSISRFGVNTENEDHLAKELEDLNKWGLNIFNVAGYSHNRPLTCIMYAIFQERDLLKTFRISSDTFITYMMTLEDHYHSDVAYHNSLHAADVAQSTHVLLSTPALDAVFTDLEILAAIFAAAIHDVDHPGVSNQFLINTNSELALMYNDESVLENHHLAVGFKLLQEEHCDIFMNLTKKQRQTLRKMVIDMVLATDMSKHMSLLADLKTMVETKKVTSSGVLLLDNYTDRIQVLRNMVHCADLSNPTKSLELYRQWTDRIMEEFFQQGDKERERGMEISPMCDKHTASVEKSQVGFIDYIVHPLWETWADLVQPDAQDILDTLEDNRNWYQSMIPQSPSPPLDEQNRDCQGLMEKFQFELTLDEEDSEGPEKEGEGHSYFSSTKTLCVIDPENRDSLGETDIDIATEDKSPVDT
How it was run: as §1

T1 sequence (Q07343 324-700): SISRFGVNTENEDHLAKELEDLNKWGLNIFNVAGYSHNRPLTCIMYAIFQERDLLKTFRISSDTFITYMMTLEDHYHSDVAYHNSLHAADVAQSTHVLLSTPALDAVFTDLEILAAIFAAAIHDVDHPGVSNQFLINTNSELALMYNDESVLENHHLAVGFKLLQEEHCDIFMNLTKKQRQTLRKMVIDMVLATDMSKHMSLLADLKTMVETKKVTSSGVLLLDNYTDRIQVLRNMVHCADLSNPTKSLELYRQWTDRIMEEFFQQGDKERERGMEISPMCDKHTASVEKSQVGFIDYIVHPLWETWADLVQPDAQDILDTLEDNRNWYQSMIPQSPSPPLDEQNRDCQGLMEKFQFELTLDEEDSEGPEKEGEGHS

Row | SMILES | IC50 [1] [µM] | IC50 [2] [µM] | IC50 [3] [µM] | IC50 [4] [µM]
1 | COc1ccc(-c2ccnc3c2ccn3S(=O)(=O)Cc2ccccc2)cc1OC [Compound 127, 4-(3,4-Dimethoxy-phenyl)-1-phenylmethanesulfonyl-1H-pyrrolo[2,3-b]pyridine] | < 10 | ≤ 10 | < 10 | < 10
2 | COc1ccc(-c2cn(C(=O)c3ccccc3OC)c3ncccc23)cc1OC [Compound 68, [3-(3,4-Dimethoxy-phenyl)-pyrrolo[2,3-b]pyridin-1-yl]-(2-methoxyphenyl)-methanone] | < 10 | ≤ 10 | < 10 | < 10
3 | COc1ccc(-c2cn(S(=O)(=O)c3ccc(C)c4ccccc34)c3ncccc23)cc1OC [Compound 12, 3-(3,4-Dimethoxy-phenyl)-1-(4-methyl-naphthalene-1-sulfonyl)-1H-pyrrolo[2,3-b]pyridine] | < 10 | > 10 | < 10 | < 10
4 | COc1ccc(-c2cn(S(=O)(=O)c3ccc(-c4cnco4)cc3)c3ncccc23)cc1OC [Compound 70, 3-(3,4-Dimethoxy-phenyl)-1-(4-oxazol-5-yl-benzenesulfonyl)-1H-pyrrolo[2,3-b]pyridine] | < 10 | ≤ 10 | < 10 | < 10
5 | COc1ncc(-c2cn(S(=O)(=O)c3cccc4cccnc34)c3ncccc23)cn1 [Compound 43, 8-[3-(2-methoxy-pyrimidin-5-yl)-pyrrolo[2,3-b]pyridine-1-sulfonyl]-quinoline] | < 10 | ≤ 10 | < 10 | < 10
6 | COc1ccc(-c2cn(C(=O)c3cccc4ccccc34)c3ncccc23)cc1OC [Compound 58, [3-(3,4-Dimethoxy-phenyl)-pyrrolo[2,3-b]pyridin-1-yl]-(1-naphthyl)-methanone-amide] | < 10 | ≤ 10 | < 10 | < 10
7 | COc1ccc(-c2cn(C(=O)c3cccnc3Cl)c3ncccc23)cc1OC [Compound 59, [3-(3,4-Dimethoxy-phenyl)-pyrrolo[2,3-b]pyridin-1-yl]-(2-chloropyridin-3-yl)-methanone-amide] | < 10 | ≤ 10 | < 10 | < 10
8 | COc1ccc(-c2cn(S(=O)(=O)Cc3ccccc3)c3ncccc23)cc1OC [Compound 8, 3-(3,4-dimethoxy-phenyl)-1-phenylmethanesulfonyl-1H-pyrrolo[2,3-b]pyridine] | < 10 | ≤ 10 | < 10 | < 10
9 | COc1ccc(-c2cn(S(=O)(=O)c3ccc(-c4nnc(C)o4)cc3)c3ncccc23)cc1OC [Compound 73, 3-(3,4-Dimethoxy-phenyl)-1-[4-(5-methyl-[1,3,4]oxadiazol-2-yl)-benzenesulfonyl]-1H-pyrrolo[2,3-b]pyridine] | < 10 | ≤ 10 | < 10 | < 10
10 | COc1ccc(-c2cn(S(=O)(=O)c3cccc4cccnc34)c3ccccc23)cc1OC [Compound 21, 8-[3-(3,4-dimethoxy-phenyl)-indole-1-sulfonyl]-quinoline] | < 10 | ≤ 10 | < 10 | < 10

Continued, values first:

Row | IC50 [1] [µM] | IC50 [2] [µM] | IC50 [3] [µM] | IC50 [4] [µM] | SMILES
11 | < 10 | ≤ 10 | < 10 | < 10 | COc1ccc(-c2cn(S(=O)(=O)c3ccc4ccccc4c3)c3ncccc23)cc1OC [Compound 11, 3-(3,4-Dimethoxy-phenyl)-1-(naphthalene-2-sulfonyl)-1H-pyrrolo[2,3-b]pyridine]
12 | < 10 | ≤ 10 | < 10 | < 10 | COc1ccc(-c2cnc3[nH]ccc3c2)cc1OC [Compound 82, 5-(3,4-Dimethoxy-phenyl)-1H-pyrrolo[2,3-b]pyridine]
13 | < 10 | > 10 | < 10 | < 10 | CCOc1ccc2ccccc2c1C(=O)n1ccc2cc(-c3ccc(OC)c(OC)c3)cnc21 [Compound 80, [5-(3,4-Dimethoxy-phenyl)-pyrrolo[2,3-b]pyridin-1-yl]-(2-ethoxy-naphthalen-1-yl)-methanone]
14 | < 10 | ≤ 10 | < 10 | < 10 | COc1ccc(-c2cn(C(=O)Nc3ccc(Cl)c(Cl)c3)c3ncccc23)cc1OC [Compound 37, 3-(3,4-Dimethoxy-phenyl)-pyrrolo[2,3-b]pyridine-1-carboxylic acid (3,4-dichloro-phenyl)-amide]
15 | < 10 | ≤ 10 | < 10 | < 10 | COc1ccc(-c2cn(Cc3c(C)ccc4ccccc34)c3ncccc23)cc1OC [Compound 76, 3-(3,4-Dimethoxy-phenyl)-1-(2-methyl-naphthalen-1-ylmethyl)-1H-pyrrolo[2,3-b]pyridine]
16 | < 10 | > 10 | > 10 | < 10 | COc1ccc(-c2cn(C(=O)Nc3cccc([N+](=O)[O-])c3)c3ncccc23)cc1OC [Compound 38, 3-(3,4-Dimethoxy-phenyl)-pyrrolo[2,3-b]pyridine-1-carboxylic acid (3-nitro-phenyl)-amide]

Reference: patent US7605168B2 (Plexxikon, Inc., priority 2004, dated 2009)
